Test [1] addresses T1, Androgen receptor (Homo sapiens, UniProt P10275).
T1 sequence (P10275 whole entry): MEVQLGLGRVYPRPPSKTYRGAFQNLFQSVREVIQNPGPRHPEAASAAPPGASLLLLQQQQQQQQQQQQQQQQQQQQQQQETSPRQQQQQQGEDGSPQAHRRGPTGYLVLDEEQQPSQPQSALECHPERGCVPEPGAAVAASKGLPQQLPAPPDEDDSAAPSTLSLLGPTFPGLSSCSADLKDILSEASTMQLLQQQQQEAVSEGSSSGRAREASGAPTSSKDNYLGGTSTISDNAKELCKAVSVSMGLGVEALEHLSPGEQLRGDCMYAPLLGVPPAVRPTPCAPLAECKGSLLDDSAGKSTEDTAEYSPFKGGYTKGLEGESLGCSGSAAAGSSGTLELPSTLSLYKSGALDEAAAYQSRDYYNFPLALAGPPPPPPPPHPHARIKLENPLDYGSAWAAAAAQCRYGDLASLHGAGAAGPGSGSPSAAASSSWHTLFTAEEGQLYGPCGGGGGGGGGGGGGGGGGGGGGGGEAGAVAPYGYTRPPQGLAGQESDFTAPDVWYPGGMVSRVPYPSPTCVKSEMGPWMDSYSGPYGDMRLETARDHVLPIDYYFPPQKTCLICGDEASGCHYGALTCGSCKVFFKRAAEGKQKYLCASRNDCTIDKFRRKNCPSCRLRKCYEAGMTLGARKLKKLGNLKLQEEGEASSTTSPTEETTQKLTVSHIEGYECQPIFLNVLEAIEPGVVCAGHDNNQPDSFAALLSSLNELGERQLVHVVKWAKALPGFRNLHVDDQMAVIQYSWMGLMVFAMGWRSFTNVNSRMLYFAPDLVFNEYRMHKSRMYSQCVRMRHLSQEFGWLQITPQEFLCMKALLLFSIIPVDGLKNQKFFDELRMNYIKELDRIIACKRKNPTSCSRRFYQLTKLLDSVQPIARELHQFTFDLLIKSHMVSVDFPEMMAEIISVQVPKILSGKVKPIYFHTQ
Description: Antagonistic activity against human androgen receptor (hAR) in CV-1 cells using cotransfection assay

For test [2], the target named is T1, Androgen receptor. The source holds these as a separate data set.
Description: Binding affinity to the human androgen receptor (hAR), using [3H]DHT as radioligand in a competitive binding assay
Test [3] concerns the target T1, Androgen receptor. This is another data set of the same source.
Description: Agonist activity to the human androgen receptor (hAR) in CV-1 cells
For test [4], the target named is T1, Androgen receptor. The test can be described thus: Antagonistic activity against human androgen receptor (hAR) in CV-1 cells was determined as a function of maximal inhibition of dihydrotestosterone using cotransfection assay. It is filed as functional, cell-based.

Consider 22 compounds from ChEMBL document CHEMBL1132051, “4-Alkyl- and 3,4-dialkyl-1,2,3,4-tetrahydro-8-pyridono[5,6-g]quinolines: potent, nonsteroidal androgen receptor agonists” (Bioorg Med Chem Lett, 1999).

The structures appear in SMILES notation. pEC50, pIC50, pKi: −log10 of the molar value. Bounds are passed on as bounds.

Consider `O=c1cc(C(F)(F)F)c2cc3c(cc2[nH]1)NCCC3c1cc(C(F)(F)F)cc(C(F)(F)F)c1` (stereo unspecified), for which, in test [1], the pIC50 – broadly, −log10 of the IC50, conventionally taken in molar units – is 6.60. The negative logarithm of the Ki (pKi) (in general, −log10 of the Ki, conventionally taken in molar units) in test [2] is below 6.00. In addition, the pEC50 (as a rule, the EC50 on a negative log10 scale, so that one unit is a factor of ten) in test [3] is below 5.00.
In test [4], `CC[C@H]1c2cc3c(C(F)(F)F)cc(=O)[nH]c3cc2NC[C@H]1C` (relative stereo) gave a pIC50 below 5.00. In addition, in test [2], the pKi is 7.57. For the same compound, the negative logarithm of the EC50 (pEC50) in test [3] was 8.15.
As to `CC1CCNc2cc3nc(O)cc(C(F)(F)F)c3cc21` (stereo unspecified), the negative logarithm of the IC50 (pIC50) in test [1] is 6.59. Moreover, in test [2], the pKi is 8.05. Also, the pEC50 in test [3] is 7.82.
The like results for `CCC1CCNc2cc3c(cc21)c(C(F)(F)F)cc(=O)n3C` (stereo unspecified) were, in that order, 7.70, 8.05 and below 5.00.
`CCC1CCN(C=O)c2cc3nc(O)cc(C(F)(F)F)c3cc21` (stereo unspecified): the pIC50 in test [4] was below 5.00. In test [2], this compound showed a pKi below 6.00. Also, in test [3], the pEC50 was 6.86.
Consider `C[C@@H]1CNc2cc3[nH]c(=O)cc(C(F)(F)F)c3cc2[C@@H]1CCC(F)(F)F`, for which, in test [1], the pIC50 is 7.20. This compound also had a pKi in test [2] below 6.00. In test [3], the pEC50 is 7.09.
The like results for `CC(C)C1CCNc2cc3[nH]c(=O)cc(C(F)(F)F)c3cc21` (stereo unspecified) were, in that order, below 5.00, 7.89 and 8.52.
The like results for `CCC1(CC)CCNc2cc3nc(O)cc(C(F)(F)F)c3cc21` were, in that order, 7.14, 7.24 and below 5.00.
Turning to `CC1c2cc3c(C(F)(F)F)cc(O)nc3cc2NC[C@@H]1C` (stereo partly specified), the pIC50 in test [4] was below 5.00. Further, the pKi in test [2] was 7.80. This compound showed a pEC50 in test [3] of 8.00.
Regarding `CC1(C)CCNc2cc3[nH]c(=O)cc(C(F)(F)F)c3cc21`, the pIC50 in test [1] is 7.80. Also, in test [2], the pKi was 7.92. Besides, in test [3], the pEC50 was 7.17.
`Oc1cc(C(F)(F)F)c2cc3c(cc2n1)NCCC3`: the negative-log IC50 (pIC50) in test [1] was 7.92. In test [2], this compound showed a pKi of 7.72. The same compound showed a pEC50 in test [3] of 6.50.
For the compound `CC(C)CC1CCNc2cc3nc(O)cc(C(F)(F)F)c3cc21` (stereo unspecified), in test [4], the pIC50 is below 5.00. Further, the pKi in test [2] was 7.66. The compound further showed a pEC50 in test [3] of 7.60.
Regarding `CCC1CCN(C)c2cc3c(cc21)c(C(F)(F)F)cc(=O)n3C` (stereo unspecified), the pIC50 in test [1] is 6.67. In test [2], the pKi was 6.58. In test [3], this compound showed a negative-log EC50 (pEC50) below 5.00.
The like results for `CCC1c2cc3c(C(F)(F)F)cc(=O)[nH]c3cc2NC[C@@H]1C` (stereo partly specified) were, in that order, 5.57, 8.10 and 8.15.
The like results for `Oc1cc(C(F)(F)F)c2cc3c(cc2n1)NC[C@@H]1CCCC[C@H]31` were, in that order, below 5.00, 8.70 and 8.52.
For `CC1c2cc3c(C(F)(F)F)cc(O)nc3cc2NC[C@H]1C` (stereo partly specified), the pIC50 in test [4] was below 5.00. Moreover, in test [2], the pKi is 8.10. In addition, the negative-log EC50 (pEC50) in test [3] was 7.66.
Regarding `CCCC1CCNc2cc3nc(O)cc(C(F)(F)F)c3cc21` (stereo unspecified), the pIC50 in test [1] was below 5.00. In test [2], this compound had a pKi of 7.54. Besides, the pEC50 in test [3] was 7.72.
The like results for `CCC1CCN(C)c2cc3[nH]c(=O)cc(C(F)(F)F)c3cc21` (stereo unspecified) were, in that order, below 5.00, 6.20 and 6.80.
The like results for `O=c1cc(C(F)(F)F)c2cc3c(cc2[nH]1)NC[C@@H]1CCC[C@H]31` were, in that order, below 5.00, 8.10 and 8.05.
In test [4], `Oc1cc(C(F)(F)F)c2cc3c(cc2n1)NC[C@H]1CCCC[C@H]31` showed a pIC50 below 5.00. Further, the pKi in test [2] is 7.82. Moreover, in test [3], the pEC50 was 8.70.
In test [1], `CC(C)C[C@H]1c2cc3c(C(F)(F)F)cc(=O)[nH]c3cc2NC[C@@H]1C` (relative stereo) gave a pIC50 of 7.54. In test [2], this compound showed a pKi of 7.14. Also, the pEC50 in test [3] was 7.25.
Compound `C[C@H]1CNc2cc3nc(O)cc(C(F)(F)F)c3cc2C1CCC(F)(F)F` (stereo partly specified) gave a pIC50 in test [4] of 7.21. Besides, the pKi in test [2] was 8.70. The pEC50 in test [3] is 7.89.
